# Values of other authors, collected in patent publication US20230091170A1, “ENRICHMENT OF ANTIGEN-SPECIFIC ANTIBODIES FOR ANALYTIC AND THERAPEUTIC USE” (priority 2020, published 2023).
# Like-named read-outs stand apart in the source and are kept apart here.
compound,measurement,setting,value
O=C(O)CCCC[C@@H]1SC[C@@H]2NC(=O)N[C@@H]21 [Biotin],Serum concentration of biotin,after a single dose of 300 mg biotin,up to 1160 ng/mL
same,Normal circulating concentrations of biotin,derived from the diet and normal metabolism,< 1.2 ng/mL
same,Serum concentration of biotin,"within the first hour after ingestion, supplements of 20 mg biotin per day",up to 355 ng/mL
